One molecule from patent US20230212129A1, “QUINAZOLINE DERIVATIVES USEFUL AS SELECTIVE HDAC6 INHIBITORS” (AnnJi Pharmaceutical Co., Ltd., priority 2020, published 2023) can be followed below.

The nature of series [1]: Oral pharmacokinetics (Table II). More on the design: AUC: concentration or dose not given beside the values. The conditions noted are these: in vivo.
Series [2] deals with bleomycin-induced pulmonary fibrosis. Description: Bleomycin-induced pulmonary fibrosis model, lung histology (H&E). Type of series: in vivo, mice. How it is done: (§1) The activities of compounds COMPOUND 2 and COMPOUND 33 in preventing and/or treating pulmonary fibrosis were examined using a bleomycin-induced pulmonary fibrosis model, a model that involves deactivated bleomycin hydrolase, elevated oxidative stress, and increased inflammatory cytokines. In the prevention model, mice were administered bleomycin intratracheally an hour in prior to the first oral administration of 30 mg/kg testing compounds. The treatment continued for 21 consecutive days, and mice were sacrificed to examine histological changes of lung tissues were analyzed by H&E staining to evaluate the degree of lung fibrosis. Additionally, the HDAC6 inhibitors, COMPOUND 2 and COMPOUND 33, were tested for their effect in aiding animal recovery from lung injury and pulmonary fibrosis post injury.

Series [3] relates to dorsal root ganglion (DRG) cells. Briefly: DRG neurite outgrowth after paclitaxel-induced damage. Format: cell-based, C57BL/6J mice. Conditions: 0.1 μM and 1 μM, 24 hours prior to 24-hour 0.1 μM paclitaxel; FIG. 1. The protocol: (§2) To investigate the effect of HDAC6 inhibitors in neuron protection and neuron regeneration, the recovery of dorsal root ganglion (DRG) cells post-paclitaxel injury was tested. Dorsal root ganglion was extracted from 7 week-old female C57BL/6J mice and incubated with HDAC6 inhibitors (compounds COMPOUND 33, COMPOUND 34, or COMPOUND 2) at the concentrations of 0.1 μM and 1 μM, or 100 ng/ml of BDNF, a neuronal growth factor (positive control), for 24 hours prior to a 24-hour incubation of 0.1 μM paclitaxel.
The neurite was stained by pIII-tubulin.

A further series has as its target T1, HDAC6 (Homo sapiens, UniProt Q9UBN7).
T1 construct: GST (N); host or cells: baculovirus expression system, Sf9 insect cells
T1 sequence (Q9UBN7 1-1215): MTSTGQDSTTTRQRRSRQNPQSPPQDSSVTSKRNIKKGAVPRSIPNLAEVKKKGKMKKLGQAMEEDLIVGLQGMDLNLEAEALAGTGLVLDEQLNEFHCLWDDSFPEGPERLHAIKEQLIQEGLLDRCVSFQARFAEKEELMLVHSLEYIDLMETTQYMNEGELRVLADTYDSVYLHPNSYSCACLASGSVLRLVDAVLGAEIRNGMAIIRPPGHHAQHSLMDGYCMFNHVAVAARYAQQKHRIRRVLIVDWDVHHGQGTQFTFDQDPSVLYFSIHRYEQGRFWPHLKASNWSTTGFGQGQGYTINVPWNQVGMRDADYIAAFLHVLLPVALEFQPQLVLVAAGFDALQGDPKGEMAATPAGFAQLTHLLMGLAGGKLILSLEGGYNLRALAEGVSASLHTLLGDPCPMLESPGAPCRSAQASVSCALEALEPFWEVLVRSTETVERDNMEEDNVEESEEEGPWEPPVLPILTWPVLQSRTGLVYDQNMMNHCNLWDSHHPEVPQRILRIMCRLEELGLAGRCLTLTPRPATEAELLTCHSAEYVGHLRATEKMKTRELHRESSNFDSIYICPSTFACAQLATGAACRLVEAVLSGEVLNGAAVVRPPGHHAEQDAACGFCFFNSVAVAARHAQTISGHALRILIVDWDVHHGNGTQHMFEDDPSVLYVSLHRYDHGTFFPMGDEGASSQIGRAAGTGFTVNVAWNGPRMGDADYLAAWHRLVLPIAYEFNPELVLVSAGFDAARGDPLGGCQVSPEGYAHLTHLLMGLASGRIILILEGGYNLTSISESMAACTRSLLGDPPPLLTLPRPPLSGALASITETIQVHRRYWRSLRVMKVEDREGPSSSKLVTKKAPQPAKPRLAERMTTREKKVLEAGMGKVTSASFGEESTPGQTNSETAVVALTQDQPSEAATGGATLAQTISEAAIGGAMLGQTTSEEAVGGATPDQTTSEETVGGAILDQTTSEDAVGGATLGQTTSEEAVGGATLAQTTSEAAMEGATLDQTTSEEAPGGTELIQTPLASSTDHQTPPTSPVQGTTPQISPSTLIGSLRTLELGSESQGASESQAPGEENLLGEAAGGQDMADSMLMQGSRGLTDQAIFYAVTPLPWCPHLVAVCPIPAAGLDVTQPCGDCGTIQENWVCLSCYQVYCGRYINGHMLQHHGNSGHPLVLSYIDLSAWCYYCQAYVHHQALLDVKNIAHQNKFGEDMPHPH
Briefly: HDAC6 activity, acetylated-AMC-labeled peptide substrate. Format: biochemical. How it is done: (§3) The activities of HDAC 1 and 6 were measured by using an acetylated-AMC-labeled peptide substrate, a fluorogenic peptide from p53 residues 379-382 (RHIKKAc). The proteins involved in the assay are as the followings (1) Human HIDAC1 (Genflank Accession No. NM_004964): Full length with C-terminal GST tag, MW=79.9 kDa, expressed by baculovirus expression system in SP9 cells; and (2) Human HIDAC6 (Genflank Accession No. BC069243): Full length with N-terminal GST tag, MW=159 kDa, expressed by baculovirus expression system in Sf9 cells.

The test system of the next series is IL-6. Briefly: IL-6 in bronchoalveolar lavage fluid, bleomycin model. Format: in vivo, mice. The conditions noted are these: prevention model, 30 mg/kg oral, 21 days; FIG. 6. How it is done:
as §1, with “fibrosis.” for “fibrosis. Additionally, the HDAC6 inhibitors, COMPOUND 2 and COMPOUND 33, were tested for their effect in aiding animal recovery from lung injury and pulmonary fibrosis post injury.”

For series [4], the system named is acetylated α-tubulin (Ac-α-tub). Description: Western blot of acetylated α-tubulin in primary DRG cells. Format: cell-based, C57BL/6J mice. Conditions: 48 hours of treatment, FIG. 2. The protocol:
as §2
In general terms: In western blotting, separated proteins are transferred to a membrane and probed.

For a further series, the target named is T2, HDAC1 (Homo sapiens, UniProt Q13547).
T2 construct: GST (C); host or cells: baculovirus expression system, Sf9 insect cells (SP9 [sic])
T2 sequence (Q13547 whole entry): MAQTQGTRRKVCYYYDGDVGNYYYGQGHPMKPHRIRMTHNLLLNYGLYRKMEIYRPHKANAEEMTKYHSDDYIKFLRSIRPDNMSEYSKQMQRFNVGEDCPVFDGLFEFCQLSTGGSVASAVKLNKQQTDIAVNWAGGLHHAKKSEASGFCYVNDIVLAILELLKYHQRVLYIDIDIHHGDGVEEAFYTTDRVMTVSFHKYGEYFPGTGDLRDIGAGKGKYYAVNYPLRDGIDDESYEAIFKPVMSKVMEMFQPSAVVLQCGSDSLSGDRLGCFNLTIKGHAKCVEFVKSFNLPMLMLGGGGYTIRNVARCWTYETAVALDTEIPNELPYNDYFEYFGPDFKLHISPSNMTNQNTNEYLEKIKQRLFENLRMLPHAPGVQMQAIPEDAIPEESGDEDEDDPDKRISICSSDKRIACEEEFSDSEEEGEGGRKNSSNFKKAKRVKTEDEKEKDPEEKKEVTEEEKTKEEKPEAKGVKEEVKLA
Briefly: HDAC1 activity, acetylated-AMC-labeled peptide substrate. Type of series: biochemical. The protocol:
as §3

On to `CCc1nc2cc(F)c(/C=C/C(=O)NO)cc2c(=O)n1-c1c(C)cccc1C` [Compound 2, (E)-3-(3-(2,6-dimethylphenyl)-2-ethyl-7-fluoro-4-oxo-3,4-dihydroquinazolin-6-yl)-N-hydroxyacrylamide], for which the highest level in series [1] (Cmax) was 1150 ng/mL. In series [1] (unit inferred), the AUC (as a rule, concentration integrated over time) turned out to be 12500 ng·h/mL. Besides, the “development of lung fibrosis” value in series [2] (prevention model, 30 mg/kg oral, 21 consecutive days, FIG. 5) was “markedly decreased the development of lung fibrosis”. Moreover, the “recovery from lung injury and pulmonary fibrosis post injury” value in series [2] (treatment post injury) is “protective effect in pulmonary inflammatory response and pulmonary fibrosis”. For the same molecule, the neurite outgrowth entry in series [3] is listed as “significantly rescued the neurite outgrowth”. At HDAC6 (HDAC1 IC50 / HDAC6 IC50), the “HDAC6 selectivity (A)/(B)” value is reported as 2585. Further, the IC50 (usually the point on the concentration scale where inhibition reaches its midpoint) at HDAC6 (read-out: HDAC6 IC50 (B)) is 2 nM; on HDAC1, 5170 nM. In the series with IL-6, the “IL-6 level in the BALF” value is “suppressed IL-6 level in the BALF”. Also, the tubulin hyperacetylation result in series [4] is “tubulin hyperacetylation”.
